{
  "source": "PubChem BioAssay (NCI)",
  "note": "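All cell lines were grown in 96-well plates and treated with compound for 48 hours. TGI denotes the concentration required for complete inhibition of growth.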",
  "data": [
    {"test_system": "ACHN renal", "experiment": "NCI tumour cell line growth inhibition, 48 h", "units": {"TGI": "µM"}, "values": [
      {"smiles": "O=C(c1ccc(O)cc1)C1c2c3c(cc(O)c2C(c2ccc(O)cc2)C1c1cc(O)cc(O)c1)OC(c1ccc(O)cc1)C3c1cc2c(cc1O)OC(c1ccc(O)cc1)C2c1cc(O)cc(O)c1", "note": "(centres undefined)", "TGI": "> 12.5"},
      {"smiles": "COc1cc(C[S+]2CCCC2)c(SC)cc1C[S+]1CCCC1", "TGI": "> 100"},
      {"smiles": "C[C@]12C=CC(=O)C=C1CC[C@H]1[C@@H]3C[C@@H](O)[C@](O)(C(=O)CO)[C@@]3(C)C[C@H](O)[C@@]12F", "TGI": "> 100"},
      {"smiles": "Oc1ccc2ccccc2c1/C=C/c1ccc2c(Br)cc(Br)c(O)c2n1", "TGI": 18.1},
      {"smiles": "COc1ccc2nc3ccc(OC)cc3c(S(=O)CCCl)c2c1", "note": "(centres undefined)", "TGI": 3.62},
      {"smiles": "COc1ccc(C2CC(=O)CC(c3ccc(OC)cc3)C23C(=O)NC(=O)NC3=O)cc1", "note": "(centres undefined)", "TGI": 78.1},
      {"smiles": "O=[N+]([O-])c1ccc(/C=N/n2c(CO)nc3ccccc32)o1", "TGI": 17.3}
    ]},
    {"test_system": "EKVX NSCLC", "experiment": "NCI tumour cell line growth inhibition, 48 h", "units": {"TGI": "µM"}, "values": [
      {"smiles": "O=C(c1ccc(O)cc1)C1c2c3c(cc(O)c2C(c2ccc(O)cc2)C1c1cc(O)cc(O)c1)OC(c1ccc(O)cc1)C3c1cc2c(cc1O)OC(c1ccc(O)cc1)C2c1cc(O)cc(O)c1", "note": "(centres undefined)", "TGI": "> 12.5"},
      {"smiles": "COc1cc(C[S+]2CCCC2)c(SC)cc1C[S+]1CCCC1", "TGI": "> 100"},
      {"smiles": "C[C@]12C=CC(=O)C=C1CC[C@H]1[C@@H]3C[C@@H](O)[C@](O)(C(=O)CO)[C@@]3(C)C[C@H](O)[C@@]12F", "TGI": "> 100"},
      {"smiles": "Oc1ccc2ccccc2c1/C=C/c1ccc2c(Br)cc(Br)c(O)c2n1", "TGI": 15.3},
      {"smiles": "COc1ccc2nc3ccc(OC)cc3c(S(=O)CCCl)c2c1", "note": "(centres undefined)", "TGI": 25.6},
      {"smiles": "COc1ccc(C2CC(=O)CC(c3ccc(OC)cc3)C23C(=O)NC(=O)NC3=O)cc1", "note": "(centres undefined)", "TGI": "> 100"},
      {"smiles": "O=[N+]([O-])c1ccc(/C=N/n2c(CO)nc3ccccc32)o1", "TGI": 23.6}
    ]},
    {"test_system": "HOP-92 NSCLC", "experiment": "NCI tumour cell line growth inhibition, 48 h", "units": {"TGI": "µM"}, "values": [
      {"smiles": "O=C(c1ccc(O)cc1)C1c2c3c(cc(O)c2C(c2ccc(O)cc2)C1c1cc(O)cc(O)c1)OC(c1ccc(O)cc1)C3c1cc2c(cc1O)OC(c1ccc(O)cc1)C2c1cc(O)cc(O)c1", "note": "(centres undefined)", "TGI": "> 12.5"},
      {"smiles": "COc1cc(C[S+]2CCCC2)c(SC)cc1C[S+]1CCCC1", "TGI": "> 100"},
      {"smiles": "C[C@]12C=CC(=O)C=C1CC[C@H]1[C@@H]3C[C@@H](O)[C@](O)(C(=O)CO)[C@@]3(C)C[C@H](O)[C@@]12F", "TGI": "> 100"},
      {"smiles": "Oc1ccc2ccccc2c1/C=C/c1ccc2c(Br)cc(Br)c(O)c2n1", "TGI": 35.5},
      {"smiles": "COc1ccc2nc3ccc(OC)cc3c(S(=O)CCCl)c2c1", "note": "(centres undefined)", "TGI": 10.8},
      {"smiles": "COc1ccc(C2CC(=O)CC(c3ccc(OC)cc3)C23C(=O)NC(=O)NC3=O)cc1", "note": "(centres undefined)", "TGI": 78.5},
      {"smiles": "O=[N+]([O-])c1ccc(/C=N/n2c(CO)nc3ccccc32)o1", "TGI": 14.8}
    ]},
    {"test_system": "KM20L2 colon", "experiment": "NCI tumour cell line growth inhibition, 48 h", "units": {"TGI": "µM"}, "values": [
      {"smiles": "O=C(c1ccc(O)cc1)C1c2c3c(cc(O)c2C(c2ccc(O)cc2)C1c1cc(O)cc(O)c1)OC(c1ccc(O)cc1)C3c1cc2c(cc1O)OC(c1ccc(O)cc1)C2c1cc(O)cc(O)c1", "note": "(centres undefined)", "TGI": "> 12.5"},
      {"smiles": "COc1cc(C[S+]2CCCC2)c(SC)cc1C[S+]1CCCC1", "TGI": "> 100"},
      {"smiles": "C[C@]12C=CC(=O)C=C1CC[C@H]1[C@@H]3C[C@@H](O)[C@](O)(C(=O)CO)[C@@]3(C)C[C@H](O)[C@@]12F", "TGI": "> 100"}
    ]},
    {"test_system": "M14 melanoma", "experiment": "NCI tumour cell line growth inhibition, 48 h", "units": {"TGI": "µM"}, "values": [
      {"smiles": "O=C(c1ccc(O)cc1)C1c2c3c(cc(O)c2C(c2ccc(O)cc2)C1c1cc(O)cc(O)c1)OC(c1ccc(O)cc1)C3c1cc2c(cc1O)OC(c1ccc(O)cc1)C2c1cc(O)cc(O)c1", "note": "(centres undefined)", "TGI": "> 12.5"},
      {"smiles": "COc1cc(C[S+]2CCCC2)c(SC)cc1C[S+]1CCCC1", "TGI": "> 100"},
      {"smiles": "C[C@]12C=CC(=O)C=C1CC[C@H]1[C@@H]3C[C@@H](O)[C@](O)(C(=O)CO)[C@@]3(C)C[C@H](O)[C@@]12F", "TGI": "> 100"},
      {"smiles": "Oc1ccc2ccccc2c1/C=C/c1ccc2c(Br)cc(Br)c(O)c2n1", "TGI": 26.5},
      {"smiles": "COc1ccc2nc3ccc(OC)cc3c(S(=O)CCCl)c2c1", "note": "(centres undefined)", "TGI": 15.3},
      {"smiles": "COc1ccc(C2CC(=O)CC(c3ccc(OC)cc3)C23C(=O)NC(=O)NC3=O)cc1", "note": "(centres undefined)", "TGI": "> 100"},
      {"smiles": "O=[N+]([O-])c1ccc(/C=N/n2c(CO)nc3ccccc32)o1", "TGI": 16.7}
    ]},
    {"test_system": "MALME-3M melanoma", "experiment": "NCI tumour cell line growth inhibition, 48 h", "units": {"TGI": "µM"}, "values": [
      {"smiles": "O=C(c1ccc(O)cc1)C1c2c3c(cc(O)c2C(c2ccc(O)cc2)C1c1cc(O)cc(O)c1)OC(c1ccc(O)cc1)C3c1cc2c(cc1O)OC(c1ccc(O)cc1)C2c1cc(O)cc(O)c1", "note": "(centres undefined)", "TGI": "> 12.5"},
      {"smiles": "COc1cc(C[S+]2CCCC2)c(SC)cc1C[S+]1CCCC1", "TGI": "> 100"},
      {"smiles": "C[C@]12C=CC(=O)C=C1CC[C@H]1[C@@H]3C[C@@H](O)[C@](O)(C(=O)CO)[C@@]3(C)C[C@H](O)[C@@]12F", "TGI": "> 100"},
      {"smiles": "Oc1ccc2ccccc2c1/C=C/c1ccc2c(Br)cc(Br)c(O)c2n1", "TGI": 32},
      {"smiles": "COc1ccc2nc3ccc(OC)cc3c(S(=O)CCCl)c2c1", "note": "(centres undefined)", "TGI": 3.57},
      {"smiles": "COc1ccc(C2CC(=O)CC(c3ccc(OC)cc3)C23C(=O)NC(=O)NC3=O)cc1", "note": "(centres undefined)", "TGI": 73},
      {"smiles": "O=[N+]([O-])c1ccc(/C=N/n2c(CO)nc3ccccc32)o1", "TGI": 5.44}
    ]},
    {"test_system": "MDA-N", "experiment": "NCI tumour cell line growth inhibition, 48 h", "units": {"TGI": "µM"}, "values": [
      {"smiles": "Oc1ccc2ccccc2c1/C=C/c1ccc2c(Br)cc(Br)c(O)c2n1", "TGI": 26.7},
      {"smiles": "COc1ccc2nc3ccc(OC)cc3c(S(=O)CCCl)c2c1", "note": "(centres undefined)", "TGI": 7.58},
      {"smiles": "COc1ccc(C2CC(=O)CC(c3ccc(OC)cc3)C23C(=O)NC(=O)NC3=O)cc1", "note": "(centres undefined)", "TGI": 86.4},
      {"smiles": "O=[N+]([O-])c1ccc(/C=N/n2c(CO)nc3ccccc32)o1", "TGI": 13.3}
    ]},
    {"test_system": "NCI-H226 lung", "experiment": "NCI tumour cell line growth inhibition, 48 h", "units": {"TGI": "µM"}, "values": [
      {"smiles": "O=C(c1ccc(O)cc1)C1c2c3c(cc(O)c2C(c2ccc(O)cc2)C1c1cc(O)cc(O)c1)OC(c1ccc(O)cc1)C3c1cc2c(cc1O)OC(c1ccc(O)cc1)C2c1cc(O)cc(O)c1", "note": "(centres undefined)", "TGI": "> 12.5"},
      {"smiles": "COc1cc(C[S+]2CCCC2)c(SC)cc1C[S+]1CCCC1", "TGI": "> 100"},
      {"smiles": "C[C@]12C=CC(=O)C=C1CC[C@H]1[C@@H]3C[C@@H](O)[C@](O)(C(=O)CO)[C@@]3(C)C[C@H](O)[C@@]12F", "TGI": "> 100"},
      {"smiles": "Oc1ccc2ccccc2c1/C=C/c1ccc2c(Br)cc(Br)c(O)c2n1", "TGI": 20.3},
      {"smiles": "COc1ccc2nc3ccc(OC)cc3c(S(=O)CCCl)c2c1", "note": "(centres undefined)", "TGI": 33.9},
      {"smiles": "COc1ccc(C2CC(=O)CC(c3ccc(OC)cc3)C23C(=O)NC(=O)NC3=O)cc1", "note": "(centres undefined)", "TGI": "> 100"},
      {"smiles": "O=[N+]([O-])c1ccc(/C=N/n2c(CO)nc3ccccc32)o1", "TGI": 39.5}
    ]},
    {"test_system": "NCI-H522 lung", "experiment": "NCI tumour cell line growth inhibition, 48 h", "units": {"TGI": "µM"}, "values": [
      {"smiles": "O=C(c1ccc(O)cc1)C1c2c3c(cc(O)c2C(c2ccc(O)cc2)C1c1cc(O)cc(O)c1)OC(c1ccc(O)cc1)C3c1cc2c(cc1O)OC(c1ccc(O)cc1)C2c1cc(O)cc(O)c1", "note": "(centres undefined)", "TGI": "> 12.5"},
      {"smiles": "COc1cc(C[S+]2CCCC2)c(SC)cc1C[S+]1CCCC1", "TGI": "> 100"},
      {"smiles": "C[C@]12C=CC(=O)C=C1CC[C@H]1[C@@H]3C[C@@H](O)[C@](O)(C(=O)CO)[C@@]3(C)C[C@H](O)[C@@]12F", "TGI": "> 100"},
      {"smiles": "Oc1ccc2ccccc2c1/C=C/c1ccc2c(Br)cc(Br)c(O)c2n1", "TGI": 14.3},
      {"smiles": "COc1ccc2nc3ccc(OC)cc3c(S(=O)CCCl)c2c1", "note": "(centres undefined)", "TGI": 3.23},
      {"smiles": "COc1ccc(C2CC(=O)CC(c3ccc(OC)cc3)C23C(=O)NC(=O)NC3=O)cc1", "note": "(centres undefined)", "TGI": 60.2},
      {"smiles": "O=[N+]([O-])c1ccc(/C=N/n2c(CO)nc3ccccc32)o1", "TGI": 4.43}
    ]},
    {"test_system": "OVCAR-4 ovarian", "experiment": "NCI tumour cell line growth inhibition, 48 h", "units": {"TGI": "µM"}, "values": [
      {"smiles": "O=C(c1ccc(O)cc1)C1c2c3c(cc(O)c2C(c2ccc(O)cc2)C1c1cc(O)cc(O)c1)OC(c1ccc(O)cc1)C3c1cc2c(cc1O)OC(c1ccc(O)cc1)C2c1cc(O)cc(O)c1", "note": "(centres undefined)", "TGI": "> 12.5"},
      {"smiles": "COc1cc(C[S+]2CCCC2)c(SC)cc1C[S+]1CCCC1", "TGI": "> 100"},
      {"smiles": "C[C@]12C=CC(=O)C=C1CC[C@H]1[C@@H]3C[C@@H](O)[C@](O)(C(=O)CO)[C@@]3(C)C[C@H](O)[C@@]12F", "TGI": "> 100"},
      {"smiles": "Oc1ccc2ccccc2c1/C=C/c1ccc2c(Br)cc(Br)c(O)c2n1", "TGI": 33.4},
      {"smiles": "COc1ccc2nc3ccc(OC)cc3c(S(=O)CCCl)c2c1", "note": "(centres undefined)", "TGI": 16.4},
      {"smiles": "COc1ccc(C2CC(=O)CC(c3ccc(OC)cc3)C23C(=O)NC(=O)NC3=O)cc1", "note": "(centres undefined)", "TGI": "> 100"},
      {"smiles": "O=[N+]([O-])c1ccc(/C=N/n2c(CO)nc3ccccc32)o1", "TGI": 21.8}
    ]},
    {"test_system": "OVCAR-5 ovarian", "experiment": "NCI tumour cell line growth inhibition, 48 h", "units": {"TGI": "µM"}, "values": [
      {"smiles": "O=C(c1ccc(O)cc1)C1c2c3c(cc(O)c2C(c2ccc(O)cc2)C1c1cc(O)cc(O)c1)OC(c1ccc(O)cc1)C3c1cc2c(cc1O)OC(c1ccc(O)cc1)C2c1cc(O)cc(O)c1", "note": "(centres undefined)", "TGI": "> 12.5"}
    ]}
  ]
}
